Counter-ions that a name gives are not always drawn. Like-named read-outs stand apart in the source and are kept apart here.
Tests used:
MPO = target: T1, MPO (Homo sapiens, UniProt P05164); experiment: Human Whole Blood Assay for Irreversible Inhibition of MPO; format: cell-based; settings: LPS-stimulated human whole blood, 4 hour incubation; irreversible inhibition of active MPO
T1 construct: endogenous in cells; host or cells: human whole blood leukocytes, LPS-stimulated
Protocol: To measure the inhibition of MPO activity in a biological system in the present invention, bioassays were performed with human whole blood that was collected from medication-free, human volunteers in heparin treated tubes (APP Pharmaceuticals, LLC, cat # NDC#63323-047-10, #4710). Blood was aliquoted and treated with different concentrations of the MPO inhibitor or vehicle control and co-treated with or without bacterial lipopolysaccharide (LPS, InVivogen) to stimulate blood leukocytes to simultaneously generate H2O2 (a required MPO substrate) and the release of MPO. After a 4 hour incubation at room temperature the plasma fraction was collected following a 2000×g centrifugation at 4° C.
The plasma fraction was divided in two for analysis of total MPO and active MPO. The total MPO content was determined using a standard sandwich ELISA (capture and detection antibodies: Cell Sciences, Cat# HP9048, and Cell Sciences, Cat# HM2164, clone 266-6K1) and calculated relative to a standard curve of purified MPO (myeloperoxidase, Calbiochem, cat#475911) that was prepared by dilution in the autologous donor plasma. The MPO activity is determined by capturing the total MPO from plasma using the capture step as described for the above ELISA method. […] The MPO activity of the captured material was compared to that obtained with a standard curve of purified MPO (myeloperoxidase, Calbiochem, cat#475911) that was prepared in autologous donor plasma. The percent of ‘active’ myeloperoxidase for each sample was calculated from the ratio of the active myeloperoxidase in the Amplex Red assay and the total myeloperoxidase from the ELISA for each sample. A dose response curve of the compound concentration versus MPO activity was then plotted to determine the IC50 value.

hERG potassium channel = target: T2, hERG potassium channel (Homo sapiens, UniProt Q12809); experiment: hERG Assay (Qpatch HT automated patch clamp, hERG-transfected CHO cells); format: cell-based; settings: for Therapeutic ratio hERG IC50/MPO IC50: hERG IC50 divided by MPO IC50 in human whole blood; for inhibition at 5 min, 100 µM: at 100 uM; for inhibition at 5 min, 300 µM: at 300 uM
T2 construct: host or cells: CHO cells (PrecisiON hERG-CHO Recombinant Cell Line)
Protocol: All testing was carried out in CHO cells transfected with the hERG gene purchased from Millipore (PrecisiON hERG-CHO Recombinant Cell Line CYL3038). The cell line was grown in DMEM/F-12, GlutaMAX™ with 10% fetal bovine serum, 1% Penicillin-Streptomycin, 1% Geneticin and 1% of 1M HEPES buffer solution, and maintained at approximately 37° C. in a humidified atmosphere containing 5% carbon dioxide. The cells were passaged every 3-5 days based on confluency. On the day of the experiment, 50%-80% confluent cells were harvested from a 175 cm^2 culture flask using Detachin™. After 10 minutes of exposure to Detachin™ at 37° C., the cells were centrifuged for 1 minute at 1000 RPM. The supernatant was removed and the cell pellet was reconstituted in 5-8 mL of serum free media with 2.5% of 1M HEPES, placed on the Qstirrer™, and allowed to recover. After a ˜30 minute recovery period, experiments were initiated.
hERG current was elicited and recorded using the automated Qpatch HT™ system (as described in Kutchinsky J, Friis S, Asmild M, et al. Characterization of potassium channel modulators with QPatch automated patch-clamp technology: system characteristics and performance. Assay Drug Dev Technol 2003; 1(5):685-93). The suspended cells in the Qstirrer™ were transferred to 48 individual recording chambers on a Qplate 48™ containing extracellular recording saline composed of (in mM): 138 NaCl, 5.3 KCl, 1.3 CaCl2, 0.5 MgCl2, 5.6 Glucose, 5 HEPES, 0.4 MgSO4, 0.44 KH2PO4, 4.2 NaHCO3, 0.34 Na2HPO4, and adjusted to pH 7.4±0.1 with NaOH. The intracellular recording saline was composed of (in mM): 130 KCl, 1 MgCl2, 10 HEPES, 5 Mg-ATP, and 5 EGTA, and adjusted to pH 7.2±0.1 with KOH. Membrane currents were recorded at room temperature.
hERG current was elicited from a holding potential of −80 mV with a voltage step to +30 mV for 1 second, followed by a ramp back to −80 mV at 0.55 mV/ms. Test pulses were delivered at a frequency of 0.25 Hz. Up to 4 different concentrations were studied on each cell, each exposure lasting 5 minutes or until steady-state effects were observed. In a separate set of experiments, a full concentration-response relationship and an IC50 was determined for a positive control, cisapride, (Jules C. Hancox, Mark J. McPate, Aziza El Harchi, Yi hong Zhang, The hERG potassium channel and hERG screening for drug-induced torsades de pointes, Pharmacology & Therapeutics, Volume 119, Issue 2, August 2008, Pages 118-132).
Using Sophion Qpatch Assay Software, the amplitude of the peak outward hERG current upon repolarizing ramp was measured. Current amplitude was determined by taking the average of the last 5 current peaks under each treatment condition. Percent inhibition was determined by taking the ratio of the current measured at steady state in the presence of test article (ITest article) versus the control current (Icontrol), and expressed as: % inhibition=100−(ITest article/IControl)*100. When possible, a concentration-response curve was plotted and the data were fitted using Qpatch software to determine an IC50.

[1] = fit to a concentration-response curve, read-out: hERG IC50 (determined by curve fitting)
[2] = extrapolated from single-point % inhibition, read-out: hERG IC50 (extrapolated from % activity shown)

T2 sequence (Q12809 whole entry): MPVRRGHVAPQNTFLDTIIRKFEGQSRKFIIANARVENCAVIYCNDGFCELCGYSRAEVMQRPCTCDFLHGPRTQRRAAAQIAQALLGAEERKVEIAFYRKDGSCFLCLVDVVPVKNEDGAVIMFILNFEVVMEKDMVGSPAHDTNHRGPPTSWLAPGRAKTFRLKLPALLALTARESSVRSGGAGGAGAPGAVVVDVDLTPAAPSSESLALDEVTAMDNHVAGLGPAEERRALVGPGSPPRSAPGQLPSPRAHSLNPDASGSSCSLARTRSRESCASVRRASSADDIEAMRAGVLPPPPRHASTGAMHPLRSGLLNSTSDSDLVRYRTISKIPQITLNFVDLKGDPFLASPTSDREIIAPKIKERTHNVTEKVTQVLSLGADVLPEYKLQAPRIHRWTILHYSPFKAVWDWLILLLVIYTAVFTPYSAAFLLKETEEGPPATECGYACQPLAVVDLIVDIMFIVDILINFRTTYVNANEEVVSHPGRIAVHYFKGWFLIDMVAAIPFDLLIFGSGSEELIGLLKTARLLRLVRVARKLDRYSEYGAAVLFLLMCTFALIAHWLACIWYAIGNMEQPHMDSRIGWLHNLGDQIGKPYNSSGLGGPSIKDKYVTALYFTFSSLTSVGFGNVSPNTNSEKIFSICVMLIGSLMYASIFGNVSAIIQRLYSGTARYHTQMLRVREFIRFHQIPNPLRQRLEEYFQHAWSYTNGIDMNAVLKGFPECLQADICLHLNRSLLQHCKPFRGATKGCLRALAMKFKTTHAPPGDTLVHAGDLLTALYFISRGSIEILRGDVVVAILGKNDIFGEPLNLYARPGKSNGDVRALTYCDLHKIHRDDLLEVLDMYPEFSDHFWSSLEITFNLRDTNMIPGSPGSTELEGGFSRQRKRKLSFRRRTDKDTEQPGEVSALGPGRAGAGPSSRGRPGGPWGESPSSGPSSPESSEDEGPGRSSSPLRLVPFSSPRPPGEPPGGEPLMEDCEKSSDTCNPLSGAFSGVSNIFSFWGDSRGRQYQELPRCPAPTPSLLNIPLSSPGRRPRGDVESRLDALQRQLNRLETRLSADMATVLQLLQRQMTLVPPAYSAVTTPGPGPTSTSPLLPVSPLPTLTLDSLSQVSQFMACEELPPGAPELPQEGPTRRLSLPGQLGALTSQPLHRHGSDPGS
T1 sequence (P05164 279-745 limits assumed): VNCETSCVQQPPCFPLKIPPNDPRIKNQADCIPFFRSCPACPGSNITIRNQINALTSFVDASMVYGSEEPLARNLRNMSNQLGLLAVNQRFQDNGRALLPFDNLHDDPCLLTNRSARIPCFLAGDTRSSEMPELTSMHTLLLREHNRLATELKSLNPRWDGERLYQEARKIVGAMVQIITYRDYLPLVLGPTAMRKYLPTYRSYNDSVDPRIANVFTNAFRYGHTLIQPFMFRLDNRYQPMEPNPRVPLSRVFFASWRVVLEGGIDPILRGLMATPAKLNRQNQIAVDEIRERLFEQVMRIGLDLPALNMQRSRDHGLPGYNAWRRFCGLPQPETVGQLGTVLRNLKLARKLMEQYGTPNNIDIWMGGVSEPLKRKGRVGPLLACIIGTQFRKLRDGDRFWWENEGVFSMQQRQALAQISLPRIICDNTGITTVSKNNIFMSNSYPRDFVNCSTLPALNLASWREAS
T1 sequence (P05164 165-273 limits assumed): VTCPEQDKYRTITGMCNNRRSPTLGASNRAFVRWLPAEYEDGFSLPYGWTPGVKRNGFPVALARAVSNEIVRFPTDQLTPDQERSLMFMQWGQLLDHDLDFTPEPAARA

IC50 (MPO) [µM]	SMILES	IC50 (hERG potassium channel; [1]) [µM]	Therapeutic ratio hERG IC50/MPO IC50 (hERG potassium channel)	inhibition at 5 min, 30 µM (hERG potassium channel; human, pH 7.4, at 30 uM) [%]	inhibition at 5 min, 100 µM (hERG potassium channel; human, pH 7.4) [%]	hERG IC50/MPO IC50 safety ratio over compound C (hERG potassium channel; 5515/41) [times]	hERG IC50/MPO IC50 safety ratio over compound D (hERG potassium channel; 5515/162) [times]	hERG IC50/MPO IC50 safety ratio over compound E (hERG potassium channel; 5515/260) [times]	hERG IC50/MPO IC50 safety ratio over compound F (hERG potassium channel; 5515/900) [times]	hERG IC50/MPO IC50 safety ratio over compound G (hERG potassium channel; 5515/1500) [times]	IC50 (hERG potassium channel; [2]) [µM]	inhibition at 5 min, 300 µM (hERG potassium channel; human, pH 7.4) [%]
0.8	COc1ccc(Cl)cc1-c1cc(=O)[nH]c(=S)n1CCN [C]	33	41	49	75							
0.55	Cc1ccc(OCCO)c(-c2cc(=O)[nH]c(=S)n2CCN)c1 [Compound A, 1-(2-Aminoethyl)-6-(2-(2-hydroxyethoxy)-5-methylphenyl)-2-thioxo-2,3-dihydropyrimidin-4(1H)-one hydrochloride]		5515			135	34	21	6.1	3.7	3030	9
2.5	COc1ccc(C)cc1-c1cc(=O)[nH]c(=S)n1CC(N)=O [Compound B]											
1.3	NCCn1c(-c2cc(Cl)ccc2OCCO)cc(=O)[nH]c1=S [Compound E]		260		23						335	
0.99	COc1ccc(C)cc1-c1cc(=O)[nH]c(=S)n1CCN [D]	160	162		40							63
	COc1ccc(Cl)cc1-c1cc(=O)[nH]c(=S)n1CC(N)=O [F, 2-(6-(5-chloro-2-methoxyphenyl)-4-oxo-2-thioxo-3,4-dihydropyrimidin-1(2H)-yl)acetamide]										1700	15
0.6	COc1ccc(-c2cc(=O)[nH]c(=S)n2CC(=O)NCCN)c(OC)c1 [G, N-(2-aminoethyl)-2-[6-(2,4-dimethoxyphenyl)-4-oxo-2-thioxo-3,4-dihydropyrimidin-1(2H)-yl]acetamide]		1500								900	25
